Measurements as given in article PMC8629650, “Novel Elongator Protein 2 Inhibitors Mitigating Tumor Necrosis Factor-α Induced Osteogenic Differentiation Inhibition” (BioMed Research International, 2021).
Read-outs that look alike come from different tables or passages of the source.

Legend:
mouse ELP2 protein = target: T1, mouse ELP2 protein (Mus musculus, UniProt Q91WG4); assay: Surface plasmon resonance (SPR) affinity analysis, compounds fixed on the chip; format: binding; details: for koff: read-out: Avg Koff; for kon: read-out: Avg Kon; for dissociation rate (in words): excluded from further testing
T1 sequence (Q91WG4 1-831): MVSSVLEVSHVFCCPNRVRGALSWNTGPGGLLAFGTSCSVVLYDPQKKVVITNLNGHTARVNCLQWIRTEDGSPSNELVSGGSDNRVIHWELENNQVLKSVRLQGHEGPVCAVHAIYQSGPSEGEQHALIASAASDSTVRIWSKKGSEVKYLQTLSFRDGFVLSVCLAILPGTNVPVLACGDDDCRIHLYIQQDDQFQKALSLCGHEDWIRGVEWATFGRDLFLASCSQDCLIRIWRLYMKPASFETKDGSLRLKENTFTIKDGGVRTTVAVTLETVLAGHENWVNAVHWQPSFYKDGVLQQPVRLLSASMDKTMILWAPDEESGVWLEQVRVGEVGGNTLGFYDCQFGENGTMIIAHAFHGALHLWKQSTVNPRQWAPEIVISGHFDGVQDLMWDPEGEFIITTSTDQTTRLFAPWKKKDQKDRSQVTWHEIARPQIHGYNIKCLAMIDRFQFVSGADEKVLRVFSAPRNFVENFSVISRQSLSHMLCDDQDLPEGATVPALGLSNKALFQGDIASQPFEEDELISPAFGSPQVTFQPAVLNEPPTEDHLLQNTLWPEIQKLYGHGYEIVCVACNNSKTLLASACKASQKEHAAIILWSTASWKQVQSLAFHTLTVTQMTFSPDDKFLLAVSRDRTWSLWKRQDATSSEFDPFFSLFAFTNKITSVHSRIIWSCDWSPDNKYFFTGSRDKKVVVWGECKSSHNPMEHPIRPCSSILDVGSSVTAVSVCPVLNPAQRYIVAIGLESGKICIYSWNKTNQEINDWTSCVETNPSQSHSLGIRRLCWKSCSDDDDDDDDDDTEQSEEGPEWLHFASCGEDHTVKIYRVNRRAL
Procedure: To validate the binding affinity of the candidate compounds with ELP2 protein, we tested the binding affinity through SPR assay. The experiment was performed as previous reported. Briefly, the candidate molecules are crossed onto the chip surface by hydrogen substitution reaction. During the experimental SPR, the chips were first primed with running buffer (1x PBS containing 5% DMSO). […] To validate the reliability of our method, we selected biotin and rapamycin binding with FKBP12 as a system control. Additionally, the solvents DMSO for compounds and PBS (pH = 7.0) for proteins were measured individually as blank controls and background noise controls.
Under the technique of photo-cross-linker biosensor chip, the candidate compounds were immobilized onto the chemically modified chip surface in random orientations and without any attached label or linker. After the compounds were fixed onto the surface of the chip, ELP2 protein solved in PBS were passed over the chip surface. The original sensor gram information was collected in real time.
The raw sensor gram information was collected in real time. The binding of each compound to the ELP2 protein during each cycle is represented by the response unit (RU) of surface resonance.

C2C12 cells [1] = assay: Alkaline phosphatase (ALP) activity under TNF-α-induced osteogenic differentiation inhibition, ID model; format: cell-based; details: for effect on TNF-α-induced inhibition of osteoblast differentiation (ALP stain and activity) / EC50: C2C12 cells; for effect on TNF-α-induced inhibition of osteoblast differentiation (ALP stain and activity): vs. TNF-α group; for EC50: Mus musculus, ID model, TNF-α; for effect on TNF-α-induced inhibition (ALP), data not shown: cell model not specified (C2C12 / MC3T3-E1)
Procedure: (§1) C2C12 cells were kept in DMEM complemented with the 10% fetal dairy serum and 1% penicillin/streptomycin and MC3T3-E1 cells in minimally needed culture medium (MEM, HyClone, GE Healthcare, USA) supplemented with 10% fetal bovine serum and 1% penicillin/streptomycin, were grown individually, and then cultured at 37.0°C, 5% CO2. As previously reported, cells were cultured for differentiation induction in the presence of TNF-α with or without our candidate compounds.
(§2) […] was detected by ALP activity via the alkaline phosphatase assay kit followed by the instruction. A BioTek microplate spectrophotometer was used to assay the apparent density at the wavelength of 405 nm. ALP activity values are equally common in the density protein found in stem cells determined to use the BCA Protein Assay Kit.
(§3) To determine the effect of the candidate compounds on TNF-α-induced osteogenic differentiation inhibition, we examined the activity of osteogenic marker alkaline phosphatase in the cells. As mentioned in Materials and Method, cells were grown in an adequate osteoblast differentiation environment and tested the alkaline phosphatase activity.
(§4) Figure 3 The ALP stain and activity measurements of 2# and 5# candidate on C2C12 and MC3T3-E1 cell osteogenic differentiations. 2# and 5# compounds show remarkable mitigation against TNF-α induced ALP activity inhibition. The ALP staining observation in each group (a, c). The relative ALP activity were measured from the cell lysates of each group (b, d). Data are mean ± SD; ^∗P < 0.05, ^∗∗P < 0.01, each experiment group vs. the TNF-α treatment cell group.

MC3T3-E1 cells [2] = assay: Mineralization assessment by Alizarin Red S staining; format: cell-based; details: day 35, vs. TNF-α control
Source text: (§5) As reported, in two differentiation cell models, the culture medium was replaced every 3 days till 35th day. Mineralization of the cell was found by staining using the Optimized Alizarin Red S Stain Kit by the kit instructions.
(§6) In order to test the function of the candidate compounds on the mineralization activity during osteoblasts differentiation, the self-differentiation (SD) model and inflammatory-differentiated (ID) model cells were stained with Alizarin Red S staining on day 35 after differentiation induction, and the mineralization activity of each group can be estimated by the number of stained spots.
(§7) Figure 5 Alizarin Red S staining of differentiated osteogenic cells, the self-differentiation (SD) model, and inflammatory-differentiated (ID) model cells were stained with Alizarin Red S staining on day 35 after differentiation induction, and the mineralization activity of each group can be estimated by the number of stained spots (bar = 50 μm).

C2C12 cells [3] = assay: as above; format: cell-based; details: day 35, vs. TNF-α control
Source text: as §5, §6, §7

[4] = tested on: osteogenic differentiation marker proteins in differentiation model cells; assay: Western blot of osteogenic differentiation markers after TNF-α treatment; format: cell-based; details: day 7, vs. TNF-α treatment
Procedure: After treatment, using PBS to wash the cells, the cells were lysed with RIPA lysis buffer. The cell lysate was then separated by SDS-PAGE. All proteins were transferred to PVDF membranes (Bio-Rad, USA). The PVDF membrane was then blocked with 5% skim milk in Tris-buffered physiological saline -0.1% Tween-20 for 1 hour and incubated with the following primary antibody: anti-ALP antibody (rabbit), anti-COL-1 antibody (mouse), anti-OCN antibody (mouse), anti-BMP-2 antibody (mouse), anti-Runx2 antibody (mouse), Anti-Osterix (rabbit), and anti-β-actin (mouse), followed by suitable horseradish peroxidase- (HRP-) labeled secondary antibody, blocking buffer for goat anti-rabbit IgG. Images were captured using G&E imaging system.
In order to investigate the changes in osteogenic differentiation associated molecules including COL-I, ALP, OCN, BMP-2, RUNX-2, and OSX genes, we performed Q-PCR and Western blot analysis on the differentiation cellular models on the 7th day after osteoblast cell differentiation are shown in Table 2. […] The level of above gene expression was raised in the 2# and the 5# candidate-treated cell with cell morphology phenotype differentiation when compared to the cell stimulated with TNF-α (Figure 6). A further study of the expression of osteoblastic markers at the protein level was performed using Western blot. […]

[5] = tested on: COL-I, ALP, OCN, BMP-2, RUNX-2 and OSX genes in C2C12 and MC3T3-E1 cells; assay: Q-PCR of osteogenic differentiation marker genes after TNF-α stimulation; format: cell-based; details: day 7, C2C12 and MC3T3-E1, vs. TNF-α-stimulated cells
Procedure: The total mRNA was extracted from cell culture using TRIzol reagent (Thermo Scientific USA). The concentration and quality of the RNA were checked using a NanoDrop™ 8000 spectrophotometer, and cDNA was then synthesized. Gene expression according to the recommendations of the reverse transcription kit was detected. Host gene β-actin was selected as the reference gene, and the gene expression level analysis was calculated by the 2^-ΔΔCt quantification method.
In order to investigate the changes in osteogenic differentiation associated molecules including COL-I, ALP, OCN, BMP-2, RUNX-2, and OSX genes, we performed Q-PCR and Western blot analysis on the differentiation cellular models on the 7th day after osteoblast cell differentiation are shown in Table 2. […] The level of above gene expression was raised in the 2# and the 5# candidate-treated cell with cell morphology phenotype differentiation when compared to the cell stimulated with TNF-α (Figure 6). A further study of the expression of osteoblastic markers at the protein level was performed using Western blot.
Figure 6 Effect of 2# and 5# treatment on TNF-α-stimulated C2C12 (a) and MC3T3-E1 (b) cell osteoblast differentiation-associated marker gene expression. Q-PCR analysis in the differentiation was conducted on the 7th day after osteoblast cell differentiation in the ID and SD models. […]

MC3T3-E1 cells [6] = assay: Alkaline phosphatase (ALP) activity under TNF-α-induced osteogenic differentiation inhibition, SD model; format: cell-based; details: for EC50: Mus musculus, SD model, TNF-α; for effect on TNF-α-induced inhibition of osteoblast differentiation (ALP stain and activity): vs. TNF-α group
Procedure: as §1, §2, §3, §4

[7] = SPR, Elp2 protein 200 nM to 3200 nM passed over the immobilized compound, read-out: Avg KD
[8] = SPR, Elp2 protein 200 nM to 3200 nM passed over the immobilized compound

| Kd (mouse ELP2 protein; [7]) | koff (mouse ELP2 protein; [8]) | kon (mouse ELP2 protein; [8]) | SMILES | other results |
| --- | --- | --- | --- | --- |
| 118 µM | 0.234 s⁻¹ | 1980 M⁻¹ s⁻¹ | COc1ccc([C@H](CC(=O)N[C@@H](Cc2ccccc2)C(N)=O)c2oc(C)cc(=O)c2O)cc1 [1#] | dissociation rate (in words) (mouse ELP2 protein; SPR): much faster dissociation rates |
| 1.46 µM | 0.000241 s⁻¹ | 165 M⁻¹ s⁻¹ | O=C1c2ccccc2-c2c1c1ccccc1c(=O)n2NCCO [2#] | effect on TNF-α-induced inhibition of osteoblast differentiation (ALP stain and activity) (C2C12 cells [1]): significant ease to TNF-α-induced inhibition of osteoblast differentiation; EC50 (C2C12 cells [1]): 14.7 µM; mineralization activity (Alizarin Red S stained spots) (MC3T3-E1 cells [2]): increased the red spot on the cell surface; mineralization activity (Alizarin Red S stained spots) (C2C12 cells [3]): increased the red spot on the cell surface; expression of osteogenic differentiation marker proteins [4]: increased; expression level of osteogenic differentiation marker genes (COL-I, ALP, OCN, BMP-2, RUNX-2, OSX) [5]: raised; EC50 (MC3T3-E1 cells [6]): 29.7 µM; effect on TNF-α-induced inhibition of osteoblast differentiation (ALP stain and activity) (MC3T3-E1 cells [6]): significant ease to TNF-α-induced inhibition of osteoblast differentiation |
| – | 0.45 s⁻¹ | 2.31 M⁻¹ s⁻¹ | Cc1cc(=O)c2c(o1)[C@H](c1cccc(O)c1)CC(=O)O2 [3#] | – |
| – | 0.342 s⁻¹ | 1.85 M⁻¹ s⁻¹ | COCn1ncnc1NCCn1c(C)cc(O)cc1=O [4#] | – |
| – | 0.415 s⁻¹ | 2.54 M⁻¹ s⁻¹ | COc1cccc(N2Cc3nn(Cc4ccccc4Cl)c(=O)n3C2=O)c1 [6#] | – |
| – | – | – | COc1ccc(C(CC(=O)NC(C)C(N)=O)c2oc(C)cc(=O)c2O)cc1 (centres unmarked) [7#] | effect on TNF-α-induced inhibition (ALP), data not shown (C2C12 cells [1]): only slightly easing of the inhibition resulting from TNF-α; Kd (mouse ELP2 protein): 3.17 µM; koff (mouse ELP2 protein): 0.0011 s⁻¹; kon (mouse ELP2 protein): 347 M⁻¹ s⁻¹ |
| 0.0936 µM | 0.00105 s⁻¹ | 11200 M⁻¹ s⁻¹ | CC1CCCC2(C)CC3OC(=O)C(CN4CCN(C(=O)c5ccco5)CC4)C3C=C12 (centres unmarked) [8#] | effect on TNF-α-induced inhibition (ALP), data not shown (C2C12 cells [1]): only slightly easing of the inhibition resulting from TNF-α |
| 149 µM | 0.075 s⁻¹ | 502 M⁻¹ s⁻¹ | Cc1cc(O)cc(=O)n1C[C@H](O)c1ccc(O)cc1 [9#] | dissociation rate (in words) (mouse ELP2 protein; SPR): much faster dissociation rates |
| – | 0.504 s⁻¹ | 2.18 M⁻¹ s⁻¹ | COc1ccc2c(c1)C(CCn1c(C)cc(O)cc1=O)C(=O)N2 (centres unmarked) [10#] | – |
| 3.48 µM | 0.000774 s⁻¹ | 222 M⁻¹ s⁻¹ | Cc1cc(O)cc(=O)n1C[C@@H](O)c1cccc(O)c1 [11#] | effect on TNF-α-induced inhibition (ALP), data not shown (C2C12 cells [1]): only slightly easing of the inhibition resulting from TNF-α |

| SMILES | Kd (mouse ELP2 protein; [7]) | koff (mouse ELP2 protein; [8]) | kon (mouse ELP2 protein; [8]) | other results |
| --- | --- | --- | --- | --- |
| COc1cc(CCN)c(-c2csc(-c3ccc(O)cc3)n2)cc1OC [5#] | 3.28 µM | 0.0122 s⁻¹ | 3720 M⁻¹ s⁻¹ | effect on TNF-α-induced inhibition of osteoblast differentiation (ALP stain and activity) (C2C12 cells [1]): significant ease to TNF-α-induced inhibition of osteoblast differentiation; EC50 (C2C12 cells [1]): 12.2 µM; mineralization activity (Alizarin Red S stained spots) (MC3T3-E1 cells [2]): increased the red spot on the cell surface; mineralization activity (Alizarin Red S stained spots) (C2C12 cells [3]): increased the red spot on the cell surface; expression of osteogenic differentiation marker proteins [4]: increased; expression level of osteogenic differentiation marker genes (COL-I, ALP, OCN, BMP-2, RUNX-2, OSX) [5]: raised; EC50 (MC3T3-E1 cells [6]): 18.2 µM; effect on TNF-α-induced inhibition of osteoblast differentiation (ALP stain and activity) (MC3T3-E1 cells [6]): significant ease to TNF-α-induced inhibition of osteoblast differentiation |
